The source of these data is patent US20070161547A1, “Modulation of survivin expression” (priority 2003, published 2007).

Read-outs that look alike come from different tables or passages of the source. Where only a bound is given, the exact number is not on record here.

The subject of series [1] is human survivin mRNA. The series can be described thus: IC50 of dsRNA for survivin mRNA, dose response by quantitative RT-PCR ("D"). The following applies: D (dose response, mRNA levels), read-out: IC50. The format is cell-based.
Series [2] concerns survivin protein. The series can be described thus: IC50 of dsRNA for survivin protein, quantitative Western blot ("W"). The format is cell-based, human. The following applies: W (Western blot), HeLa cells. The procedure:
Western blot analysis (immunoblot analysis) is carried out using standard methods. Cells are harvested 16-20 hours after oligonucleotide treatment, washed once with PBS, suspended in Laemmli buffer (100 μl/well), boiled for 5 minutes and loaded on a 16% SDS-PAGE gel. Gels are run for 1.5 hours at 150 V, and transferred to membrane for western blotting. Appropriate primary antibody directed to survivin is used, with a radiolabelled or fluorescently labeled secondary antibody directed against the primary antibody species. Bands are visualized using a PHOSPHORIMAGER™ (Molecular Dynamics, Sunnyvale, Calif.).
For western blot analysis, cells are plated in 10 cm tissue culture dishes (Falcon, #3003) at a density of 7.5×10^5 cells/dish. For RT-PCR analysis, 96-well plates (Corning Incorporated, #3596) are plated with 1×10^4 cells/well. Lipofectin (GIBCO/Invitrogen) transfection reagent is used at a concentration of 3 ul/ml OPTIMEM reduced serum medium (Gibco/Invitrogen)/100 nM siRNA duplex. Lipofectin reagent is incubated with OPTIMEM medium for 30 minutes prior to the addition of siRNA. The desired amount of siRNA is added and mixed. Further 1:1 dilutions are performed in OPTIMEM. Cells are washed twice with 1× phosphate buffered saline and then treated with the siRNA/Lipofectin mixture in OPTIMEM. After a 4 hr incubation period, OPTIMEM medium is replaced with complete growth medium. Cells are harvested after additional 16-20 hrs for Western blot or RT-PCR analysis.
At the end of the incubation period culture medium is removed and cells are washed twice with PBS. Cells are lysed in RIPA buffer (20 mM Tris-HCl, pH 7.4, 5 mM EDTA, 50 mM NaCl, 10 mM Sodium Pyrophosphate, 50 mM Sodium Fluoride, and 1% Nonidet P40) plus Complete™ Mini protease inhibitor tablets (Roche, #1836153) and 1 mM Sodium orthovanadate (Sigma) by directly adding buffer to the plate. Lysates are collected by scrapping, transferred to microfuge tubes and cleared from the cellular debris by centrifugation at 14,000 rpm for 30 minutes at 4° C. Protein concentrations are determined using BCA protein assay yeagents (Pierce). Total cellular protein is subjected to SDS-PAGE and transferred onto Immobilon-P membranes (Millipore, #IPVHO91). Membranes are probed with primary antibodies to survivin (R&D Systems, #AF886) and to β-Actin (Sigma, #A5441). Horseradish peroxidase linked Anti-rabbit Ig, and anti-mouse Ig, antibodies (Pharmacia) are used as secondary antibodies. Antigen-antibody complexes are visualized by incubation of membrane in SuperSigmal West Pico chemiluminescence reagents (Pierce) for 5 minutes followed by capturing of the chemiluminescence using Fluor-S imager (Biorad) equipped with the cool CCD camera. The protein bands of interest for each sample are quantified using Quantity One software (Biorad). The percentage inhibition for each samples are calculated by comparing the survivin/Actin protein ratio for the sample to survivin/Actin protein ratio for the untreated control. The IC50 is derived from the non-linear regression analysis of the percentage inhibition data using GraphPad Prism software (GraphPad Software).
The constructs tested comprise the antisense strand in the 5′-3′ orientation, and the sense strand in the 5′ to 3′ orientation, In Table 15, “D” is dose response (mRNA levels) and “W” is Western blot. All internucleoside linkages are phosphodiester unless otherwise noted by a lowercase “s” indicating a phosphorothioate linkage.
A general note: In western blotting, separated proteins are transferred to a membrane and probed.

A word on the IC50: it is the concentration that gives 50% inhibition. Consider “339060_339090 (antisense AGUUUGUGCUAUUCUGUGAA; sense UUCACAGAAUAGCACAAACU; siRNA; unmodified RNA)”, for which the IC50 in series [1] (HeLa cells) came to 3.38 nM; in series [2] it was 4.43 nM.

With “339056_339086 (antisense UAAGGAACCUGCAGCUCAGA; sense UCUGAGCUGCAGGUUCCUUA; siRNA; unmodified RNA)”, the results for the IC50 in series [1] (HeLa cells), in series [1] (U-87 MG cells) and in series [2] were 1.72 nM, 0.51 nM and 7.5 nM, respectively.

Regarding “339058_339088 (antisense AACAAAAUAAGAAAGCCAUG; sense CAUGGCUUUCUUAUUUUGUU; siRNA; unmodified RNA)”, the IC50 in series [1] (HeLa cells) was found to be 2.96 nM; in series [2], 7.23 nM.

With “339048_339078 (antisense AUUUGAAAAUGUUGAUCUCC; sense GGAGAUCAACAUUUUCAAAU; siRNA; unmodified RNA)”, the IC50 in series [1] (U-87 MG cells) turned out to be 0.34 nM; in series [2], 3.97 nM.

With “339045_339075 (antisense AUCCAUGGCAGCCAGCUGCU; sense AGCAGCUGGCUGCCAUGGAU; siRNA; unmodified RNA)”, the results for the IC50 in series [1] (HeLa cells), in series [1] (U-87 MG cells) and in series [2] were 3.3 nM, 0.68 nM and 5.5 nM, respectively.

Take “339052_339082 (antisense GCAAAAGGGACACUGCCUUC; sense GAAGGCAGUGUCCCUUUUGC; siRNA; unmodified RNA)”: the IC50 was 2.41 nM in series [1] (HeLa cells), 1.15 nM in series [1] (U-87 MG cells) and ≥ 100 nM in series [2].
